This experiment concerns the target T1, Protein ENL (Homo sapiens, UniProt Q03111).
T1 sequence (Q03111 whole entry): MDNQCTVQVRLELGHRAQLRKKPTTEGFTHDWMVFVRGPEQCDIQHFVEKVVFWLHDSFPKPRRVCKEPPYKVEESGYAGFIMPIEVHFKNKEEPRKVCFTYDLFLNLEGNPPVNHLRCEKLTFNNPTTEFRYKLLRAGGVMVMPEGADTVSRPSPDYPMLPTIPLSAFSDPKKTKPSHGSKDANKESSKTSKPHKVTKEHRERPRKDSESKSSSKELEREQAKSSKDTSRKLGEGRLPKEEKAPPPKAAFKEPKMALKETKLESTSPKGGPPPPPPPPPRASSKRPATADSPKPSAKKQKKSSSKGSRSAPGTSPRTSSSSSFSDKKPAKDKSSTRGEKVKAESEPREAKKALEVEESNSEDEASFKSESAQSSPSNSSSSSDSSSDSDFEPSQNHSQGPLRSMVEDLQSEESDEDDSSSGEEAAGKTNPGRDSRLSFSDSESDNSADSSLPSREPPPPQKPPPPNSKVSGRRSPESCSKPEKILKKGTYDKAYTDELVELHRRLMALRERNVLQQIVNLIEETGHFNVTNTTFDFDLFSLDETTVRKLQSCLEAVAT
Put plainly: FRET Assay. As to the method: Low control (LC) wells received 5 μL of assay buffer instead of ENL protein. […] The response at each compound concentration minus the LC value was converted to percent inhibition of the vehicle control group response (HC-LC).

With `CN1CCC[C@@H]1c1nc2ccc(NC(=O)c3ccc4c(C5CC5)nn(C)c4c3)cc2[nH]1` [US20250136592, Example 10], the IC50 came out at 98 nM.

Regarding `CN1CCC[C@@H]1c1nc2cc(NC(=O)c3ccc4c(-c5ccncc5)noc4c3)ccc2[nH]1` [US20250136592, Example 13], half-maximal inhibition (IC50) was put at 158 nM. Compared with the last compound, the IC50 is about 1.6-fold higher. As for `Cc1nccc2cc(C(=O)Nc3cc4[nH]c([C@H]5CCCCN5C)cc4cn3)ccc12` [US20250136592, Example 80], the figure is 18 nM; as for `CN1CCC[C@@H]1c1cc2cnc(NC(=O)c3ccc4c(c3)nnn4-c3ccncc3)cc2[nH]1` [US20250136592, Example 85], 56 nM.

By IC50 is commonly meant the concentration that inhibits the measured activity by half. A high value points to a need for much substance.
